Experimental data as given in patent US20240101544A1, “INHIBITORS OF QPCTL AND QPCT” (priority 2022, published 2024).

What was measured:
[1] = molecular target: QPCTL (Homo sapiens (Human), UniProt Q9NXS2); assay: QPCTL Enzymatic Activity Assay (coupled-enzyme fluorescent assay, H-Gln-AMC substrate); assay type: biochemical; conditions: recombinant truncated human QPCTL 10-12 nM, 10 μM H-Gln-AMC; read-out: QPCTL Inhibition IC50
Procedure: Protein expression was induced when the bacterial culture OD600 was approximately 0.7 using 1 mM IPTG and the cells incubated at 20° C. for approximately 16 hours. The QPCTL was purified using nickel column purification, digested by TEV, followed by a second nickel column purification. The protein was further purified by size-exclusion chromatography using a Superdex™ 75 column. The final protein was concentrated using ultrafiltration tubes at a molecular weight cutoff of 10 kilodaltons and stored frozen in protein buffer (25 mM Tris pH 8.3, 150 mM NaCl).
QPCTL activity was measured in a coupled-enzyme assay using the QPCTL substrate, glutamine-7-amido-4-methylcoumarin (H-Gln-AMC, Bachem), which is converted to pyroglutamyl-AMC by QPCTL. Pyroglutamyl-AMC is then converted to the fluorescent molecule, AMC, by incubation with the human enzyme pyroglutamyl peptidase-1. […] Final concentrations of DMSO and test compounds were 2% and 30-100 μM, respectively. Following the incubation, H-Gln-AMC substrate was diluted in assay buffer and added to each well for a final concentration of 10 μM. The reaction was incubated for 60 min at 37° C., before stopping it by boiling at 100° C. for 5 minutes and cooling the plate at 4° C. for 3 minutes. […] Following incubation, the fluorescence was measured with a plate reader using excitation at 380 nm and emission at 460 nm. […] Concentration-response-curves and IC50 values (Table 17) were generated using curve fit software.

[2] = molecular target: QPCT (rhQPCT) (Homo sapiens (Human), UniProt Q16769); assay: QPCT Enzymatic Activity Assay (coupled-enzyme fluorescent assay, H-Gln-AMC substrate); assay type: biochemical; conditions: rhQPCT 10-12 nM, 10 μM H-Gln-AMC; read-out: QPCT Inhibition IC50
Procedure: QPCT activity was measured in a coupled-enzyme assay using the QPCT substrate, glutamine-7-amido-4-methylcoumarin (H-Gln-AMC, Bachem), which is converted to pyroglutamyl-AMC by QPCT. Pyroglutamyl-AMC is then converted to the fluorescent molecule, AMC, by incubation with the human enzyme pyroglutamyl peptidase-1 (PGPEP-1). […] Following the incubation, H-Gln-AMC substrate was diluted in assay buffer and added to each well for a final concentration of 10 μM. The reaction was incubated for 60 min at 37° C., before stopping it by boiling at 100° C. for 5 minutes and cooling the plate at 4° C. for 3 minutes. […] Following incubation, the fluorescence was measured with a plate reader using excitation at 380 nm and emission at 460 nm. […] Concentration-response-curves and IC50 values (Table 17) were generated using Collaborative Drug Discovery software.

Chain of QPCTL (Q9NXS2 53-382): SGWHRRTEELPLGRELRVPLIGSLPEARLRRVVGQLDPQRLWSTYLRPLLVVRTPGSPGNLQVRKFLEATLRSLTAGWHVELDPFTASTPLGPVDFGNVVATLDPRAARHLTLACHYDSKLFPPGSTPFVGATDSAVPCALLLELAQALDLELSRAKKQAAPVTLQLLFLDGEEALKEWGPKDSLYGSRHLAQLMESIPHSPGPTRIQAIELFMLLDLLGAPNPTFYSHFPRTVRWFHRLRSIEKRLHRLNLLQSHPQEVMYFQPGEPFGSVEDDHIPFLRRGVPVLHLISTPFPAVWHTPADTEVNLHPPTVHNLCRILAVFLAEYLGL
Chain of QPCT (rhQPCT) (Q16769 29-361): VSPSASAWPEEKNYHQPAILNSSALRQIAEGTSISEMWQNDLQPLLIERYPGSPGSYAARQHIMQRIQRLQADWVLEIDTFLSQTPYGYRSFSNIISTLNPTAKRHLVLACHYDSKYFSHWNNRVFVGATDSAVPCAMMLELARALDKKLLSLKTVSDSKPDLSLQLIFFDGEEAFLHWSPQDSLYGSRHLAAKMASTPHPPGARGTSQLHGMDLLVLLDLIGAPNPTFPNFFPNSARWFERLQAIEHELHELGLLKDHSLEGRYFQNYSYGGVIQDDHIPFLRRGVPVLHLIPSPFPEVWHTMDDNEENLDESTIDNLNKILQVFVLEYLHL

Question: Which IC50 [1] does the source give for `Cn1cnnc1C1CCN(c2c(C#N)cccc2-c2ccc(F)c(F)c2)CC1` [Example 102, 3′,4′-difluoro-2-(4-(4-methyl-4H-1,2,4-triazol-3-yl)piperidin-1-yl)-[1,1′-biphenyl]-3-carbonitrile] here?
Answer: 100 to 1000 nM

Question: And the IC50 [2]?
Answer: < 100 nM

Question: With `Cn1cnnc1C1CCN(c2c(C#N)cccc2-c2cncc(Br)c2)CC1` [Example 114, 3-(5-bromopyridin-3-yl)-2-(4-(4-methyl-4H-1,2,4-triazol-3-yl)piperidin-1-yl)benzonitrile] as the compound, how does the IC50 [1] read?
Answer: < 100 nM

Question: What about the IC50 [2] of the same compound?
Answer: < 100 nM

Question: What does the source list for `[2H]C([2H])([2H])n1cnnc1C1CCN(c2c(-c3ccc(F)nc3)ccc(Cl)c2C#N)CC1` [Example 56, 6-chloro-3-(6-fluoropyridin-3-yl)-2-(4-(4-(methyl-d3)-4H-1,2,4-triazol-3-yl)piperidin-1-yl)benzonitrile]?
Answer: IC50 [1]: < 100 nM; IC50 [2]: < 100 nM

Question: Which IC50 [1] does the source give for `Cc1cc(-c2c(F)ccc(C#N)c2N2CCC(c3nncn3C)CC2)cnc1F` [Example 53, 4-fluoro-3-(6-fluoro-5-methylpyridin-3-yl)-2-(4-(4-methyl-4H-1,2,4-triazol-3-yl)piperidin-1-yl)benzonitrile] here?
Answer: < 100 nM

Question: And the IC50 [2]?
Answer: < 100 nM

Question: Which IC50 [1] does the source give for `[2H]C([2H])([2H])n1cnnc1C1CCN(c2c(-c3ccc(F)nc3)ccc(-c3cnn(C)c3)c2C#N)CC1` [Example 54, 3-(6-fluoropyridin-3-yl)-6-(1-methyl-1H-pyrazol-4-yl)-2-(4-(4-(methyl-d3)-4H-1,2,4-triazol-3-yl)piperidin-1-yl)benzonitrile] here?
Answer: < 100 nM

Question: What about the IC50 [2] of the same compound?
Answer: < 100 nM

Question: For `[2H]C([2H])([2H])n1cnnc1C1CCN(c2c(-c3ccnnc3)ccc(-c3cnn(C)c3)c2C#N)CC1` [Example 55, 6-(1-methyl-1H-pyrazol-4-yl)-2-(4-(4-(methyl-d3)-4H-1,2,4-triazol-3-yl)piperidin-1-yl)-3-(pyridazin-4-yl)benzonitrile], which IC50 [1] is on record?
Answer: < 100 nM

Question: And the IC50 [2]?
Answer: < 100 nM

Question: For “6′-fluoro-3-(4-(1-methyl-1H-imidazol-5-yl)piperidin-1-yl)-[2,3′-bipyridine]-4-carbonitrile [Example 134]”, which IC50 [1] is on record?
Answer: < 100 nM

Question: And the IC50 [2]?
Answer: < 100 nM

Question: Which IC50 [1] does the source give for `COc1cnc(-c2ccc(F)nc2)c(N2CCC(c3nncn3C)CC2)c1C#N` [Example 137, 6′-fluoro-5-methoxy-3-(4-(4-methyl-4H-1,2,4-triazol-3-yl)piperidin-1-yl)-[2,3′-bipyridine]-4-carbonitrile] here?
Answer: 1000 to 10000 nM

Question: And the IC50 [2]?
Answer: 100 to 1000 nM

Question: What does the source list for `Cn1cnnc1C1CCN(c2c(C#N)cccc2-c2cncc(OS(=O)(=O)F)c2)CC1` [Example 118, 5-(3-cyano-2-(4-(4-methyl-4H-1,2,4-triazol-3-yl)piperidin-1-yl)phenyl)pyridin-3-yl sulfurofluoridate]?
Answer: IC50 [1]: < 100 nM; IC50 [2]: < 100 nM

Question: `Cn1cnnc1N1CCN(c2c(C#N)ccnc2-c2ccc(F)nc2)CC1` [Example 136, 6′-fluoro-3-(4-(4-methyl-4H-1,2,4-triazol-3-yl)piperazin-1-yl)-[2,3′-bipyridine]-4-carbonitrile] was tested. Which IC50 [1] did it give?
Answer: < 100 nM

Question: What about the IC50 [2] of the same compound?
Answer: < 100 nM

Question: With `COc1ccncc1-c1cccc(C#N)c1N1CCC(c2cnc(N)s2)CC1` [Example 17, 2-[4-(2-amino-1,3-thiazol-5-yl)piperidin-1-yl]-3-(4-methoxypyridin-3-yl)benzonitrile] as the compound, how does the IC50 [1] read?
Answer: 100 to 1000 nM

Question: What about the IC50 [2] of the same compound?
Answer: 100 to 1000 nM

Question: `Cc1cc(-c2c(F)ccc(C#N)c2N2CCC(c3nncn3C)CC2)cnn1` [Example 59, 4-fluoro-2-(4-(4-methyl-4H-1,2,4-triazol-3-yl)piperidin-1-yl)-3-(6-methylpyridazin-4-yl)benzonitrile] was tested. Which IC50 [1] did it give?
Answer: 100 to 1000 nM

Question: And the IC50 [2]?
Answer: 100 to 1000 nM

Question: Which IC50 [1] does the source give for `Cn1cnnc1C1CCN(c2c(C#N)cccc2-c2cnc3cn[nH]c3c2)CC1` [Example 125, 2-(4-(4-methyl-4H-1,2,4-triazol-3-yl)piperidin-1-yl)-3-(1H-pyrazolo[4,3-b]pyridin-6-yl)benzonitrile] here?
Answer: 100 to 1000 nM

Question: What about the IC50 [2] of the same compound?
Answer: < 100 nM

Question: For `Cn1ccc(-c2ccc(-c3cncc(B(O)O)c3)c(N3CCC(c4nncn4C)CC3)c2C#N)n1` [Example 126, (5-(3-cyano-4-(1-methyl-1H-pyrazol-3-yl)-2-(4-(4-methyl-4H-1,2,4-triazol-3-yl)piperidin-1-yl)phenyl)pyridin-3-yl)boronic acid], which IC50 [1] is on record?
Answer: < 100 nM

Question: And the IC50 [2]?
Answer: < 100 nM

Question: How did the IC50 [1] turn out when `C#Cc1ccc(-c2cccc(C#N)c2N2CCC(c3nncn3C)CC2)cc1C=O` [Example 128, 4′-ethynyl-3′-formyl-2-(4-(4-methyl-4H-1,2,4-triazol-3-yl)piperidin-1-yl)-[1,1′-biphenyl]-3-carbonitrile] was run?
Answer: 100 to 1000 nM

Question: And the IC50 [2]?
Answer: < 100 nM

Question: With `COc1ccncc1-c1cccc(C#N)c1N1CCC(c2nnc(N)s2)CC1` [Example 21, 2-[4-(5-amino-1,3,4-thiadiazol-2-yl)piperidin-1-yl]-3-(4-methoxypyridin-3-yl)benzonitrile] as the compound, how does the IC50 [1] read?
Answer: 100 to 1000 nM

Question: What about the IC50 [2] of the same compound?
Answer: 100 to 1000 nM

Question: Which IC50 [1] does the source give for `Cn1cnnc1C1CCN(c2c(C#N)cccc2-c2cnnn2C)CC1` [Example 104, 3-(1-methyl-1H-1,2,3-triazol-5-yl)-2-(4-(4-methyl-4H-1,2,4-triazol-3-yl)piperidin-1-yl)benzonitrile] here?
Answer: 100 to 1000 nM

Question: And the IC50 [2]?
Answer: 100 to 1000 nM

Question: For `Cn1cnnc1C1CCN(c2c(C#N)cccc2-c2cnnc(O)c2)CC1` [Example 52, 3-(6-hydroxypyridazin-4-yl)-2-(4-(4-methyl-4H-1,2,4-triazol-3-yl)piperidin-1-yl)benzonitrile], which IC50 [1] is on record?
Answer: < 100 nM

Question: And the IC50 [2]?
Answer: < 100 nM

Question: With `CN1CCOc2c(-c3cccc(C#N)c3N3CCC(c4nncn4C)CC3)cncc21` [Example 22, 3-{4-methyl-2H,3H,4H-pyrido[4,3-b][1,4]oxazin-8-yl}-2-[4-(4-methyl-4H-1,2,4-triazol-3-yl)piperidin-1-yl]benzonitrile] as the compound, how does the IC50 [1] read?
Answer: 100 to 1000 nM

Question: And the IC50 [2]?
Answer: 100 to 1000 nM

Question: Which results are given for `Cn1ncc(-c2cccc(C#N)c2N2CCC(c3nncn3C)CC2)n1` [Example 99, 3-(2-methyl-2H-1,2,3-triazol-4-yl)-2-(4-(4-methyl-4H-1,2,4-triazol-3-yl)piperidin-1-yl)benzonitrile]?
Answer: IC50 [1]: 100 to 1000 nM; IC50 [2]: < 100 nM

Question: For `Cc1ncn(-c2ccc(-c3ccc(F)nc3)c(N3CCC(c4nncn4C)CC3)c2C#N)n1` [Example 50, 3-(6-fluoropyridin-3-yl)-6-(3-methyl-1H-1,2,4-triazol-1-yl)-2-(4-(4-methyl-4H-1,2,4-triazol-3-yl)piperidin-1-yl)benzonitrile], which IC50 [1] is on record?
Answer: < 100 nM

Question: And the IC50 [2]?
Answer: < 100 nM

Question: For `Cn1cnnc1C1CCN(c2c(C#N)cccc2-c2ccc(Cl)nc2)CC1` [Example 40, 3-(6-chloropyridin-3-yl)-2-[4-(4-methyl-4H-1,2,4-triazol-3-yl)piperidin-1-yl]benzonitrile], which IC50 [1] is on record?
Answer: < 100 nM

Question: And the IC50 [2]?
Answer: 100 to 1000 nM

Question: Which IC50 [1] does the source give for `COc1ccncc1-c1cccc(C#N)c1N1CCC(n2cnnc2C)CC1` [Example 18, 3-(4-methoxypyridin-3-yl)-2-[4-(3-methyl-4H-1,2,4-triazol-4-yl)piperidin-1-yl]benzonitrile] here?
Answer: > 10000 nM

Question: And the IC50 [2]?
Answer: > 10000 nM

Question: How did the IC50 [1] turn out when `COc1ccncc1-c1cccc(C#N)c1N1CCC(n2ccnc2)CC1` [Example 13, 2-[4-(1H-imidazol-1-yl)piperidin-1-yl]-3-(4-methoxypyridin-3-yl)benzonitrile] was run?
Answer: 1000 to 10000 nM

Question: And the IC50 [2]?
Answer: 100 to 1000 nM

Question: Which results are given for `Cn1cnnc1C1CCN(c2c(C#N)cccc2-c2cnccc2O)CC1` [Example 7, 3-(4-hydroxypyridin-3-yl)-2-[4-(4-methyl-4H-1,2,4-triazol-3-yl)piperidin-1-yl]benzonitrile]?
Answer: IC50 [1]: 1000 to 10000 nM; IC50 [2]: 1000 to 10000 nM

Question: `CN(C)CCOc1ccc(-c2ccnnc2)c(N2CCC(c3nncn3C)CC2)c1C#N` [Example 58, 6-(2-(dimethylamino)ethoxy)-2-(4-(4-methyl-4H-1,2,4-triazol-3-yl)piperidin-1-yl)-3-(pyridazin-4-yl)benzonitrile] was tested. Which IC50 [1] did it give?
Answer: < 100 nM

Question: What about the IC50 [2] of the same compound?
Answer: < 100 nM

Question: For `COc1ccncc1-c1ccc(-c2ccccc2)c(C#N)c1N1CCC(c2nncn2C)CC1` [Example 32, 4-(4-methoxypyridin-3-yl)-3-[4-(4-methyl-4H-1,2,4-triazol-3-yl)piperidin-1-yl]-[1,1′-biphenyl]-2-carbonitrile], which IC50 [1] is on record?
Answer: < 100 nM

Question: And the IC50 [2]?
Answer: < 100 nM

Question: What does the source list for `Cn1cnnc1C1CCN(c2c(C#N)c(C3CC3)cc(F)c2-c2ccc(F)nc2)CC1` [Example 135, 6-cyclopropyl-4-fluoro-3-(6-fluoropyridin-3-yl)-2-(4-(4-methyl-4H-1,2,4-triazol-3-yl)piperidin-1-yl)benzonitrile]?
Answer: IC50 [1]: 100 to 1000 nM; IC50 [2]: < 100 nM
